Where “and” joins values, the source holds several entries; their conditions need not be identical. Identical values can stand only once. Calls of active or inactive are those of the source.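 The calls were made as follows: active = compounds giving half or more protection of infected cells from virus-caused growth loss, again on retest; inactive = the rest.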
Tested on: CEM cells HIV-1 protection, formazan growth assay
Assay: NCI AIDS Antiviral Assay
Details: for IC50: measured here: growth of uninfected CEM cells
Method in brief: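 CEM (human) cells, HIV-1 infected vs uninfected, 5-point dosing, formazan growth read-out. Retest threshold 50% protection.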

SMILES | EC50 | IC50 | outcome
CC(=O)OC1CSS(=O)CC1OC(C)=O (stereo not given) | > 513 µM | 22.9 µM | 
COP(=O)(OC)/C(=C\C1=CN(C(c2ccccc2)(c2ccccc2)c2ccccc2)CN1)NC=O | > 200 µM | 21.4 µM | 
O=C(O)Cn1ncn(NC(=O)Cc2ccccc2)c1=S | > 200 µM | > 200 µM | 
CC(=O)OC1CCC2OOC1O2 (stereo not given) |  |  | inactive
CN(C(=O)C1=CCC2(CC1)OCCO2)c1ccccc1OS(=O)(=O)C(F)(F)F | > 200 µM | > 200 µM | 
O=C(/C=C/c1ccc(O)cc1)c1cc(Cl)ccc1O |  |  | inactive
CC(C)c1cccc(C(C)C)c1NC(=O)C(=O)CC(=O)CC(c1ccccc1)c1c(O)c2ccccc2oc1=O (stereo not given) | > 468 µM | 229 µM | 
Cc1ncc2c(n1)NC(=O)NC2 | > 83.2 µM | > 83.2 µM | 
c1ccc(C(=C2C3CCC2C2CSCC32)c2ccccc2)cc1 (stereo not given) | > 93.3 µM | 46.8 µM | 
COc1cc2c(cc1O)C1(Cc3ccc4c(c3[C@@H]1O)OCO4)N(C)CC2 (stereo not given in full) | > 141 µM | > 141 µM | 
COc1cc(/C=C2/SC(c3ccccc3)N(c3ccccc3)C2=O)cc(OC)c1OC (stereo not given) | > 20 µM | 4.47 µM | 
CN=C1CN2OC(=O)N(C)C2(c2ccccc2)c2cc(Cl)ccc2N1 (stereo not given) | > 112 µM | 41.7 µM | 
C=CCOCCCC(=O)C(=[N+]=[N-])C(=O)OC | > 251 µM | 57.5 µM | 
O=C1/C(=C/c2ccc(Cl)cc2)Cc2ccccc21 | > 5.62 µM | > 5.62 µM | 
CC[C@](C)(O)C(=O)O[C@H]1C(=O)O[C@@H]2C[C@H]3C(C)=CC(=O)[C@@H](O)[C@]3(C)[C@H]3[C@@]4(O)OC[C@]32[C@@H]1[C@@H](C)[C@H]4O |  |  | inactive
CC1CCOS(=O)O1 (stereo not given) | > 1820 µM | > 1820 µM | 
Cc1c(NC=C(C#N)C#N)c(=O)n(-c2ccccc2)n1C | > 200 µM | > 200 µM | 
C[C@]12CC[C@H](OC(=O)CCC(=O)O)CC1=CC[C@@H]1C2CC[C@@]2(C)C1CC[C@@H]2c1ncc(-c2ccccc2)s1 (stereo not given in full) | > 9.33 µM | > 9.33 µM | 
COC(=O)OCC1C=CC(n2cnc3c(Cl)nc(N)nc32)CC1 (stereo not given) | > 200 µM | 31.6 µM | 
CCN(CC)C(=O)Cn1c2c(c3ccccc31)CCCC2 | > 200 µM | 138 µM | 
CCOC(=O)C1=C(C)N(NC(N)=O)C(C)(O)C12CCOC2=O (stereo not given) | > 794 µM | > 794 µM | 
O=C(Nc1cc2c(oc1=O)CCCCC2)c1ccccc1 | > 200 µM | > 200 µM | 

SMILES | EC50 | IC50 | outcome
COc1ccc2c(c1)-c1nc(=O)n(CCCN(C)C)c3ccc([N+](=O)[O-])c(c13)N2 | > 1 µM | 0.355 µM | 
CN(N)P(=O)(c1ccccc1)N(C)N | > 1150 µM | 501 µM | 
CCc1cccc(C(C)C)c1NC(=O)CC1Sc2ccccc2NC1=O (stereo not given) | > 97.7 µM | 52.5 µM | 
CC(C)N(C(=O)C12C3C4C1C1C2C3C41I)C(C)C (stereo not given) | > 191 µM | > 191 µM | 
CN(C)c1ccc(/C=C(\C#N)c2ccccc2Br)cc1 | > 40.7 µM | 3.98 µM | 
Cc1ccc(NC(=O)CC/C(CC(=O)C(C)(C)C)=N/NC(=O)c2cc3ccccc3cc2O)cc1C | > 20.4 µM | > 20.4 µM | 
CC1(C)CCC2=C(O1)C(=O)c1ccccc1C2=O | > 200 µM | 18.2 µM and 14.5 µM | 
O=C1NC(=Nc2ccccc2)C(=Nc2ccccc2)N1c1ccccc1 | > 200 µM | 14.8 µM | 
COc1ccc2c(c1)N(C)CCCC2=O | > 200 µM | 151 µM | 
OCC(O)CNc1ccnc2cc(Cl)ccc12 (stereo not given) | > 631 µM | 117 µM | 
Nc1nc2ccccc2n1CC(=O)NC12CC3CC(CC(C3)C1)C2 | > 79.4 µM | 36.3 µM | 
CC(N)(CC(O)(C(F)(F)Cl)C(F)(F)Cl)C(=O)O (stereo not given) | > 200 µM | > 200 µM | 
CCCCCC=C1c2ccccc2C=Cc2ccccc21 | > 200 µM | 72.4 µM | 
Cc1c(N/C=C(\C#N)C(=O)c2ccc(Cl)cc2)c(=O)n(-c2ccccc2)n1C | > 200 µM | 72.4 µM | 
CN1B(c2ccccc2)N(C)C(=O)N(C)C1=O | > 200 µM | > 200 µM | 
COC(=O)Oc1nn(C(=O)OC)c(=O)c2ccccc12 (tested in a mixture with another compound) | > 200 µM | > 200 µM | 
C#C[C@]1(O)CCC2C3CCc4cc(Oc5nc(F)nc(-n6c(C)nc7cc8ccccc8cc76)n5)ccc4C3CCC21C (stereo not given in full) | > 200 µM | 28.2 µM | 
c1ccc(CN(Cc2ccccn2)Cc2ccccn2)nc1 | > 200 µM | 3.16 µM | 
CC(=O)Nc1ccccc1Sc1ccccc1 | > 245 µM | 69.2 µM | 
CN(C)Cc1cc(N=Nc2ccc(Cl)cc2)cc(CN(C)C)c1O | > 20 µM | 8.71 µM | 
COc1ccc(OC)c(N=Nc2c(O)c3ccccc3[nH]c2=O)c1 | 47.9 µM | > 200 µM | 
CCOP(C)(=O)/C(Cc1ccc(OC)c(OC)c1)=N\O (stereo not given) | > 200 µM | > 200 µM | 

Source: PubChem BioAssay AID179 (DTP/NCI, 2004)
